Results: paper PMC10402865, “Fragment-based design, synthesis and biological evaluation of theophylline derivatives as ATAD2 inhibitors in BT-549 cells” (Journal of Enzyme Inhibition and Medicinal Chemistry, 2023)
Each block holds one molecule with its values, some of them ahead of it.

Tests used:
BT-549 cells [1] = test: Cell viability (MTT) assay, anti-proliferative activity; assay type: cell-based; settings: for IC50: Homo sapiens, MTT, 24 h, mean ± SD
Method: BT-549 cells were seeded at a density of 5 × 10^4 cells/ml in a 96-well plate. Following a 24-h incubation period, the cells were exposed to various concentrations of different compounds for the specified durations. Cell viability was evaluated using an MTT assay.

[2] = target: T1, ATAD2 recombinant bromodomain protein (Homo sapiens, UniProt Q6PL18); test: ATAD2 enzymatic assay by TR-FRET technology; assay type: binding; settings: TR-FRET; for IC50: mean ± SD, read-out: Kinase inhibitory activity (IC50, μM) ATAD2
T1 sequence (Q6PL18 980-1092 limits assumed): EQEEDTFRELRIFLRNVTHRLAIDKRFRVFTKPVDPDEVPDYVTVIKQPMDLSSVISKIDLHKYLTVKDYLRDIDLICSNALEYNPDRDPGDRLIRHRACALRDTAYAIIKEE
Method: The assay was performed by TR-FRET technology using recombinant bromodomain and BET Ligand[8]. The compounds were diluted with indicated folds in 5% DMSO in reaction buffer and 2 µl of the dilution was added to a 20 µl reaction so that the final concentration of DMSO is 0.5% in all of the reactions. The 20 µl reaction mixture consists of the ATAD2 recombinant bromodomain protein, the indicated amount of the inhibitor, ligand, and the reactive dyes. The reaction mixture was incubated for 3 h before reading the TR-FRET signal. Fluorescence signals for both the donor and acceptor dyes were measured using a Tecan Infinite M1000 plate reader. Binding experiments were performed in duplicate at each concentration and the data were analysed using GraphPad Prism.

ATAD2 = settings: cited from earlier work
MDA-MB-231 cells [3] = tested on: MDA-MB-231 cells; parameters: method as in PMID 32174193; settings: read-out: antiproliferative activity IC50 in MDA-MB-231 cells; cited from earlier work
[4] = tested on: ATAD2, c-Myc, and p-c-Myc^Ser62 in BT-549 cells; test: Western blot of ATAD2, c-Myc and p-c-Myc Ser62; assay type: cell-based; settings: BT-549 cells, 5, 10, 20 μM, 48h
Method: (§1) Cells were exposed to AM879, BAY-850 or compound 19f for the specified time intervals. Both adherent and floating cells were harvested and subsequently resuspended in a lysis buffer, followed by incubation at 4 °C for 1 h. Following centrifugation at 12,000 rpm for 20 min, the protein content of the supernatant was quantified using the BCA protein assay. Then protein were separated by 8–15% SDS-PAGE and transferred onto PVDF membranes. The membranes were blocked with blocking buffer and subjected to primary antibody incubation, followed by incubation with HRP-conjugated secondary antibody. Protein detection was achieved using ECL as the HRP substrate.

BT-549 cells [5] = test: 3D cell culture, cell sphere diameter; assay type: cell-based
Method: For 3D cell culture, 10,000 cells were placed in 96-well spherical plates for 24h and treated with different concentrations of compound 19f, […] or AM879. The diameter of the cell balls was measured by photographing.

BT-549 cells [6] = test: Wound healing assay; assay type: cell-based; settings: BT-549 cells, 2.5, 5, 10, 20 μM, 48h
[7] = tested on: MMP-2 and E-cadherin in BT-549 cells; test: Western blot of migration markers; assay type: cell-based; settings: BT-549 cells, 5, 10, 20 μM, 48h
Method: as §1

BT-549 cells [8] = test: Transwell migration assay; assay type: cell-based; settings: BT-549 cells, 5, 10, 20 μM, 48h
Method: BT-549 cells were seeded into the upper chamber of a Transwell insert at a density of 15,000 cells per well. The cells were treated with either DMSO or compound 19f for 48 h, after which non-migrated cells were removed from the upper surface, while the migrated cells were stained with crystal violet. Then, the cells were washed with PBS and imaged using a phase-contrast microscope.

MCF-10A cells = test: Cell viability (Figure S1), normal breast cells; assay type: cell-based
MDA-MB-231 cells [9] = test: Cell viability (Figure S1); assay type: cell-based
[10] = tested on: Bax, Bcl-2, Caspase-3, Caspase-8, Caspase-9, and PARP in BT-549 cells; test: Western blot of apoptotic marker proteins; assay type: cell-based; settings: BT-549 cells, 5, 10, 20 μM, 48h
Method: as §1

BT-549 cells [11] = test: EdU-488 newly synthesised DNA assay; assay type: cell-based; settings: BT-549 cells, 5, 10, 20 μM, 48h
BT-549 cells [12] = test: Colony formation assay; assay type: cell-based
[13] = tested on: p-c-Myc^Ser62 in BT-549 cells; test: Immunofluorescence of p-c-Myc Ser62; assay type: cell-based; settings: 48h
Method: To prevent non-specific antibody binding, BT-549 cells were treated with a blocking buffer (PBS +1.5% goat serum) prior to immunofluorescence staining. The cells were subsequently incubated with a p-c-Myc^Ser62 antibody (1:200) diluted in blocking buffer and allowed to incubate overnight at 4 °C. Afterward, the cells were further incubated with fluorescent-labelled secondary antibodies for 1 h at room temperature.

BT-549 cells [14] = test: Apoptosis assay, Annexin-V/PI double staining; assay type: cell-based; settings: BT-549 cells, 5, 10, 20 μM, 48h
Description: To assess apoptosis, BT-549 cells were exposed to varying concentrations of compound 19f, and apoptosis ratios were quantified via Annexin-V/PI double staining.

IC50 (BT-549 cells [1]): 4.79 ± 0.52 µM | IC50 [2]: 3.49 ± 0.77 µM
Compound: CC1=C(C#N)c2nc(N)c(C#N)cc2/C1=C\c1ccc(-c2cc(C(=O)O)ccc2Cl)o1 [AM879]
IC50 (ATAD2): 3.5 µM | IC50 (MDA-MB-231 cells [3]): 2.43 µM | expression levels of c-Myc and p-c-Myc Ser62 (western blot) [4]: inhibited the expression levels of c-Myc and p-c-Myc^Ser62 in a dose-dependent manner | expression of ATAD2 (western blot) [4]: no significant effect on the expression of ATAD2

IC50 (BT-549 cells [1]): 3.45 ± 0.59 µM
Compound: COc1cc(Cl)c(C(=O)N[C@@H](CN[C@H]2CC[C@@H](N)CC2)Cc2ccc(C#N)cc2)cc1-c1ccc(CN[C@H](C)c2ccc(C)cc2)o1 [BAY-850]
IC50 (ATAD2): 0.02 µM | expression levels of c-Myc and p-c-Myc Ser62 (western blot) [4]: reduced c-Myc expression and ser62 the phosphorylation at ser62 in a dose-dependent manner | expression of ATAD2 (western blot) [4]: inhibited the expression of ATAD2

IC50 (BT-549 cells [1]): 5.43 ± 0.71 µM | IC50 [2]: 0.27 ± 0.05 µM
Compound: COc1ccc(C(=O)NC2CCCC2)cc1NC(=O)Cn1cnc2c(=O)n(C)c(=O)n(C)c21 [Compound 19f, N-cyclopentyl-3–(2-(1,3-dimethyl-2,6-dioxo-1,2,3,6-tetrahydro-9H-purin-9-yl)acetamido)-4-methoxybenzamide]
diameter of 3D tumour cell spheres (BT-549 cells [5]): dose-dependently reduce the diameter of the 3D tumour cell spheres | relative wound area (BT-549 cells [6]): increased the relative wound area in a dose-dependent manner | expression of E-cadherin and MMP-2 [7]: up-regulated the expression of E-cadherin and down-regulated MMP-2 | migrated cell number (BT-549 cells [8]): decreased the migrated cell number in a dose-dependent manner | anti-proliferative activity in BT-549 cells, in words (BT-549 cells [1]): anti-proliferative activity comparable to BAY-850 and AM879 | antiproliferative activity relative to the positive drug BAY-850 (BT-549 cells [1]): about one-fold weaker | cytotoxicity to normal breast MCF-10A cells (MCF-10A cells): did not show obvious cytotoxicity | ATAD2 inhibitory activity, in words [2]: weaker ATAD2 inhibitory activity compared with BAY-850, but a stronger ATAD2 inhibitory activity than AM879 | anti-proliferative activity in MDA-MB-231 cells, in words (MDA-MB-231 cells [9]): good anti-proliferative activity | cleavage of caspase-8 [10]: the cleavage of caspase-8 was not changed significantly | expression of Bax, cleavage of caspase-3, caspase-9 and PARP [10]: promoted the expression of Bax, the cleavage of caspase-3, caspase-9 and PARP | expression of Bcl-2 [10]: the expression of Bcl-2 was significantly decreased | fluorescence intensity of EdU-488 (BT-549 cells [11]): reduce the fluorescence intensity of EdU-488 in a dose-dependent manner | colony formation ability (BT-549 cells [12]): inhibit the colony formation ability of BT-549 cells in a concentration-dependent manner | p-c-Myc Ser62 level compared with AM879 and BAY-850 ([13]; BT-549 cells, 10 μM): more significant impact on p-c-Myc^Ser62 level than AM879, and a similar result to the BAY-850 | fluorescence intensity of p-c-Myc Ser62 ([13]; BT-549 cells, 5, 10, 20 μM): reduce the fluorescence intensity of p-c-Myc^Ser62 in a dose-dependent manner | apoptosis induction, in words (BT-549 cells [14]): induce obvious apoptosis in a dose-dependent manner | expression levels of c-Myc and p-c-Myc Ser62 (western blot) [4]: inhibited the expression levels of c-Myc and p-c-Myc^Ser62 in a dose-dependent manner | expression of ATAD2 (western blot) [4]: no significant effect on the expression of ATAD2
